Consider one compound from ChEMBL document CHEMBL4219086, “Development of benzoxazole deoxybenzoin oxime and acyloxylamine derivatives targeting innate immune sensors and xanthine oxidase for treatment of gout” (Bioorg Med Chem, 2018).

By inhibition in vivo is commonly meant how much of the control response was suppressed. The low end stands for a response near the control, the high end for a response far below the control. For orientation: IC50 means the concentration that inhibits the measured activity by half. Broadly, the inhibition is the change of the read-out against control, counted positive when it falls. In general, Ki refers to a measure of affinity in units of concentration, obtained from inhibition or displacement. A lower Ki goes with a stronger hold on the target.

Active and inactive are the calls of the source. The calls are words filed in the database; no cut-off is given here.

Experiment [1] relates to Rattus norvegicus. Briefly: Antiarthritic activity in MSU-induced acute gouty arthritis Sprague-Dawley rat model assessed as reduction in ankle swelling by measuring perimeter of ankle at 5 mg/kg, po qd pretreated via gavage for 5 days followed by MSU treatment at 1 hr post last dose measured after 2 hrs (reference value: 2.82 +/- 0.75 cm). Type of experiment: functional.

Experiment [2] deals with Mus musculus. Nature of the experiment: In vivo inhibition of XOD activity in liver of Kunming mouse model of potassium oxonate-induced hyperuricemia at 5 mg/kg, po treated 1 hr post potassium oxonate addition measured after 1 hr relative to control. Type of experiment: functional.
The test system of experiment [3] is Rattus norvegicus. Briefly: Antiarthritic activity in MSU-induced acute gouty arthritis Sprague-Dawley rat model assessed as reduction in ankle swelling by measuring perimeter of ankle at 2.5 mg/kg, po qd pretreated via gavage for 5 days followed by MSU treatment at 1 hr post last dose measured after 4 hrs (reference value: 3.18 +/- 0.64 cm). Type of experiment: functional.

A further experiment concerns the target Toll-like receptor 4 (Homo sapiens, UniProt O00206). Briefly: Inhibition of human TLR4 signaling expressed in HEK-Blue cells co-expressing MD2/CD14 assessed as reduction in LPS-induced NF-kappaB activation-mediated SEAP production preincubated for 2 hrs followed by LPS stimulation for 20 hrs by colorimetric assay. Type of experiment: cell-based.
For experiment [4], the system named is Rattus norvegicus. Briefly: Antiarthritic activity in MSU-induced acute gouty arthritis Sprague-Dawley rat model assessed as reduction in ankle swelling by measuring perimeter of ankle at 5 mg/kg, po qd pretreated via gavage for 5 days followed by MSU treatment at 1 hr post last dose measured after 8 hrs (reference value: 3.27 +/- 0.56 cm). Type of experiment: functional.

Experiment [5] deals with Rattus norvegicus. Nature of the experiment: Inhibition of MSU-induced p65 NFkappaB protein level in synovial homogenate of acute gouty arthritis Sprague-Dawley rat model at 2.5 to 10 mg/kg, po qd pretreated via gavage for 5 days followed by MSU treatment at 1 hr post last dose measured up to 24 hrs by Western blot method. Type of experiment: functional, organism-based. A general note: In western blotting, separated proteins are transferred to a membrane and probed.

Experiment [6] deals with Rattus norvegicus. Nature of the experiment: Inhibition of MSU-induced phosphorylated IkappaB protein level in synovial homogenate of acute gouty arthritis Sprague-Dawley rat model at 2.5 to 10 mg/kg, po qd pretreated via gavage for 5 days followed by MSU treatment at 1 hr post last dose measured up to 24 hrs by Western blot method. Type of experiment: functional, organism-based.

The test system of experiment [7] is Rattus norvegicus. Nature of the experiment: Inhibition of MSU-induced TLR4 protein level in synovial homogenate of acute gouty arthritis Sprague-Dawley rat model at 2.5 to 10 mg/kg, po qd pretreated via gavage for 5 days followed by MSU treatment at 1 hr post last dose measured up to 24 hrs by Western blot method. Type of experiment: functional, organism-based.

The test system of experiment [8] is Rattus norvegicus. Briefly: Antiarthritic activity in MSU-induced acute gouty arthritis Sprague-Dawley rat model assessed as reduction in ankle swelling by measuring perimeter of ankle at 10 mg/kg, po qd pretreated via gavage for 5 days followed by MSU treatment at 1 hr post last dose measured after 4 hrs (reference value: 3.18 +/- 0.64 cm). Type of experiment: functional.

For experiment [9], the system named is Rattus norvegicus. Briefly: Inhibition of MSU-induced MyD88 protein level in synovial homogenate of acute gouty arthritis Sprague-Dawley rat model at 2.5 to 10 mg/kg, po qd pretreated via gavage for 5 days followed by MSU treatment at 1 hr post last dose measured up to 24 hrs by Western blot method. Type of experiment: functional, organism-based.
In experiment [10] the test system is Rattus norvegicus. Nature of the experiment: Antiarthritic activity in MSU-induced acute gouty arthritis Sprague-Dawley rat model assessed as reduction in ankle swelling by measuring perimeter of ankle at 2.5 mg/kg, po qd pretreated via gavage for 5 days followed by MSU treatment at 1 hr post last dose measured after 24 hrs (reference value: 3.35 +/- 0.5 cm). Type of experiment: functional.

The subject of experiment [11] is Rattus norvegicus. Nature of the experiment: Antiarthritic activity in MSU-induced acute gouty arthritis Sprague-Dawley rat model assessed as reduction in ankle swelling by measuring perimeter of ankle at 5 mg/kg, po qd pretreated via gavage for 5 days followed by MSU treatment at 1 hr post last dose measured after 24 hrs (reference value: 3.35 +/- 0.5 cm). Type of experiment: functional.

Experiment [12] concerns Mus musculus. Nature of the experiment: Hypouricemic effect in Kunming mouse assessed as inhibition of hepatic XOD activity at 10 mg/kg, po measured after 1 hr relative to control. Type of experiment: organism-based.
For experiment [13], the system named is Rattus norvegicus. Nature of the experiment: Inhibition of MSU-induced caspase-1 protein level in synovial homogenate of acute gouty arthritis Sprague-Dawley rat model at 2.5 to 10 mg/kg, po qd pretreated via gavage for 5 days followed by MSU treatment at 1 hr post last dose measured up to 24 hrs by Western blot method. Type of experiment: functional, organism-based.

Experiment [14] deals with Mus musculus. Nature of the experiment: Hypouricemic effect in Kunming mouse assessed as inhibition of hepatic XOD activity at 2.5 mg/kg, po measured after 1 hr relative to control. Type of experiment: organism-based.
Experiment [15] has as its system Mus musculus. Nature of the experiment: In vivo inhibition of XOD activity in liver of Kunming mouse model of potassium oxonate-induced hyperuricemia at 10 mg/kg, po treated 1 hr post potassium oxonate addition measured after 1 hr relative to control. Type of experiment: functional.
Experiment [16] concerns Rattus norvegicus. Briefly: Inhibition of MSU-induced ASC protein level in synovial homogenate of acute gouty arthritis Sprague-Dawley rat model at 2.5 to 10 mg/kg, po qd pretreated via gavage for 5 days followed by MSU treatment at 1 hr post last dose measured up to 24 hrs by Western blot method. Type of experiment: functional, organism-based.
For experiment [17], the system named is Rattus norvegicus. Nature of the experiment: Antiarthritic activity in po dosed MSU-induced acute gouty arthritis Sprague-Dawley rat model assessed as reduction in ankle swelling pretreated qd via gavage for 5 days followed by MSU treatment at 1 hr post last dose measured after 24 hrs. Type of experiment: functional, organism-based.
For experiment [18], the system named is Rattus norvegicus. Nature of the experiment: Antiarthritic activity in MSU-induced acute gouty arthritis Sprague-Dawley rat model assessed as reduction in ankle swelling by measuring perimeter of ankle at 10 mg/kg, po qd pretreated via gavage for 5 days followed by MSU treatment at 1 hr post last dose measured after 12 hrs (reference value: 3.51 +/- 0.52 cm). Type of experiment: functional.

The test system of experiment [19] is Rattus norvegicus. Briefly: Antiarthritic activity in MSU-induced acute gouty arthritis Sprague-Dawley rat model assessed as reduction in ankle swelling by measuring perimeter of ankle at 10 mg/kg, po qd pretreated via gavage for 5 days followed by MSU treatment at 1 hr post last dose measured immediately (reference value: 2.64 +/- 0.81 cm). Type of experiment: functional.

Experiment [20] relates to Rattus norvegicus. Briefly: Antiarthritic activity in MSU-induced acute gouty arthritis Sprague-Dawley rat model assessed as reduction in ankle swelling by measuring perimeter of ankle at 10 mg/kg, po qd pretreated via gavage for 5 days followed by MSU treatment at 1 hr post last dose measured after 2 hrs (reference value: 2.82 +/- 0.75 cm). Type of experiment: functional.

In experiment [21] the target is Xanthine dehydrogenase/oxidase (Homo sapiens, UniProt P47989). Briefly: Competitive inhibition of Xanthine oxidase (unknown origin) using xanthine as substrate preincubated for 1 to 5 mins followed by substrate addition by Lineweaver-Burk plot analysis.
Chain of Xanthine dehydrogenase/oxidase (P47989 whole entry): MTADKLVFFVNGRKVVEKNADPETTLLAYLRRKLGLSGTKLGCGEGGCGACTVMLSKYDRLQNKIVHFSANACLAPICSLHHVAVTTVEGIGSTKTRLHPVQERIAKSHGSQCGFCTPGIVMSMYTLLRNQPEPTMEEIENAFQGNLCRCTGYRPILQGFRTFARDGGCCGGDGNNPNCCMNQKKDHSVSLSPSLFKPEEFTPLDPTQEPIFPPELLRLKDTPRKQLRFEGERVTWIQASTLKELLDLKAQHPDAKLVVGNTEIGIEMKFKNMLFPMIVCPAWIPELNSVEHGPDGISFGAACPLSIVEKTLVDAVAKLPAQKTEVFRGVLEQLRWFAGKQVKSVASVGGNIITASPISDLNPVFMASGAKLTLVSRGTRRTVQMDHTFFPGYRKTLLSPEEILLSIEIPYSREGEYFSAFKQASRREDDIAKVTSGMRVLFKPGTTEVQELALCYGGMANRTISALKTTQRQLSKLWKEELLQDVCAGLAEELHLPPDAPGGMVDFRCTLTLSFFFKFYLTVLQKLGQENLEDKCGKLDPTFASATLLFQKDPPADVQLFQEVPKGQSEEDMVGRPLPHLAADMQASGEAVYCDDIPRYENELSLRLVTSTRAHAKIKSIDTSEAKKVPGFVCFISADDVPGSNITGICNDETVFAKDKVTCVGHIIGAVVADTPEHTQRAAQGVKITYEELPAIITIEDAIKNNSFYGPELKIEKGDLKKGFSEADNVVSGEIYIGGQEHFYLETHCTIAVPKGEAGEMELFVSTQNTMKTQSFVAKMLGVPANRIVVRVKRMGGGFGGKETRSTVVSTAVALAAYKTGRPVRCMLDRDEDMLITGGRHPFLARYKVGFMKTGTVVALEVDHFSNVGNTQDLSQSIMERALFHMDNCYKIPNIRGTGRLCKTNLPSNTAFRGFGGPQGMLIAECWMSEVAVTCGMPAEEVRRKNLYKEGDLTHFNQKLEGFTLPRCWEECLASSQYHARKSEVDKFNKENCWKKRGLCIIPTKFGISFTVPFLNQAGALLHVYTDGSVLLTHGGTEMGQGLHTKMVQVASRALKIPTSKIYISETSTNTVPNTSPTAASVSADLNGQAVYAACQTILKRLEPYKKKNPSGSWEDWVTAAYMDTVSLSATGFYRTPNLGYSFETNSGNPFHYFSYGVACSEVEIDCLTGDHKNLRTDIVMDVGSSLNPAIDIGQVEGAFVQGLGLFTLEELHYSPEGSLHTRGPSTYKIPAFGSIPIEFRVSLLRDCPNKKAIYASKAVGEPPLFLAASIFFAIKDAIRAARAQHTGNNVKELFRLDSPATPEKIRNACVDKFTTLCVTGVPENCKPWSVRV
For experiment [22], the system named is Rattus norvegicus. Nature of the experiment: Antiarthritic activity in MSU-induced acute gouty arthritis Sprague-Dawley rat model assessed as reduction in ankle swelling by measuring perimeter of ankle at 10 mg/kg, po qd pretreated via gavage for 5 days followed by MSU treatment at 1 hr post last dose measured after 24 hrs (reference value: 3.35 +/- 0.5 cm). Type of experiment: functional.

The subject of experiment [23] is Mus musculus. Briefly: In vivo inhibition of XOD activity in liver of Kunming mouse model of potassium oxonate-induced hyperuricemia at 2.5 mg/kg, po treated 1 hr post potassium oxonate addition measured after 1 hr relative to control. Type of experiment: functional.

Chain of Toll-like receptor 4 (O00206 whole entry): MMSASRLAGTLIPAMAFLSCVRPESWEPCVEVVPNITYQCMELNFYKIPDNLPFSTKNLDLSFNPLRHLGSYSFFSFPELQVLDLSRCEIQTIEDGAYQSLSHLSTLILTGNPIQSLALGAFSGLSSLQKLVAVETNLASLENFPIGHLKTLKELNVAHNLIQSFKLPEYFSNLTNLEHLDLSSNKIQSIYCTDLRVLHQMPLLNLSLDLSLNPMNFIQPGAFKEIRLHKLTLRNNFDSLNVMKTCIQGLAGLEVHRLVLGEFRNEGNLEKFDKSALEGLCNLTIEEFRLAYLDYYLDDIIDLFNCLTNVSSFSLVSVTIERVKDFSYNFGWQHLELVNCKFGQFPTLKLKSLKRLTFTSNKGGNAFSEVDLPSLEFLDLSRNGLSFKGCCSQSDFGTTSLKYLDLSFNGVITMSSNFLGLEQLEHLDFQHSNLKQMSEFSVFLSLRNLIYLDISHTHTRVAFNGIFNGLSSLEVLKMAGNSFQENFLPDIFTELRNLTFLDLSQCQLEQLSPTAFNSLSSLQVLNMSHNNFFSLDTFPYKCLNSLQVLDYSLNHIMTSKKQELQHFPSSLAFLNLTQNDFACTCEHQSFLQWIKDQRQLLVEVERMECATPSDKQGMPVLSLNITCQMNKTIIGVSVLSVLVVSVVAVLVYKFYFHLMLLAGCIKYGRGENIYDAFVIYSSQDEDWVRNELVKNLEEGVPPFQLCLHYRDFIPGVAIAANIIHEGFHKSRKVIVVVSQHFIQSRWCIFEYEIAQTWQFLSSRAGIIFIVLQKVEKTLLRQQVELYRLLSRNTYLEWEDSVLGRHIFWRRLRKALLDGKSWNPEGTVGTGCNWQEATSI

As to `COc1ccc(C/C(=N\O)c2nc3ccc(OC)cc3o2)cc1`, the Activity was 2.56 cm in the experiment on Rattus norvegicus [1]; 2.95 cm in the experiment with Rattus norvegicus [3]; 2.88 cm in the experiment on Rattus norvegicus [4]; 2.79 cm with Rattus norvegicus [8]; 2.97 cm with Rattus norvegicus [10]; 2.8 cm in the experiment on Rattus norvegicus [11]. The Activity result in the experiment on Rattus norvegicus [17] is “Dose-dependent effect”; in the experiment on Rattus norvegicus [18], 2.7 cm; in the experiment on Rattus norvegicus [19], 2.56 cm; with Rattus norvegicus [20], 2.69 cm; in the experiment on Rattus norvegicus [22], 2.73 cm. The inhibition in vivo at 5 mg/kg with Mus musculus [2] was determined as 35.8%. For the same compound, the IC50 on Toll-like receptor 4 stood at 0.54 µM. For the same compound, the inhibition result with Rattus norvegicus [5], in the experiment on Rattus norvegicus [6], with Rattus norvegicus [7], in the experiment with Rattus norvegicus [9], in the experiment with Rattus norvegicus [13] and in the experiment on Rattus norvegicus [16] was “Active” each time. For the same compound, in the experiment with Mus musculus [12], the inhibition at 10 mg/kg was 10.2%. The inhibition at 2.5 mg/kg with Mus musculus [14] turned out to be 3.7%. Moreover, 10 mg/kg produced 41.9% inhibition in vivo in the experiment with Mus musculus [15]. This compound also yielded a Ki in experiment [21] of 2.89 µM. For the same compound, the inhibition in vivo at 2.5 mg/kg with Mus musculus [23] is 19.2%.
